From patent US20250197387A1, “BCL-XL DEGRADERS AND USES THEREOF” (Kymera Therapeutics, Inc., priority 2021, published 2025)

Experiments:
Type in all cases: cell-based
BCL-XL = target: T1, BCL-XL (Homo sapiens, UniProt Q07817); test: Bcl-xL ELISA degradation in MOLT-4 cells, 6 h; details: for DC50: read-out: Bcl-xL ELISA in MOLT-4 degradation 6 h: Mean external-Abs DC50
T1 construct: endogenous in cells; host or cells: MOLT-4
Procedure: The letter codes for BCL-XL DC50 include: A (<0.01 μM); B (0.01-0.1 μM); C (>[…]); D (>0.5-1.0 μM); and E (>1.0 μM). The letter codes for Dmax % include A (>75%); B (50 to 75%); C (<50%).

Caki-2 cells = test: CTG (CellTiter-Glo) cell viability assay, Caki-2; details: Homo sapiens, 72 h, 3 day incubation, read-out: CTG Chempartner - Caki-2 3 day: Average external-IC50
Method in brief: (§1)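 10,000 cells/well; 9 doses, 1:3 from 10 μM top; 0.2% DMSO; 3 d, 37 °C, 5% CO2; CTG luminescence; IC50 via 3-parameter logistic fit. Letter bins differ: Caki-2 C/D cut at 10.0 μM, MOLT-4 at 3.0 μM.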

MOLT-4 cells = test: CTG (CellTiter-Glo) cell viability assay, MOLT-4; details: Homo sapiens, MOLT-4, 72 h, 3 day incubation, read-out: CTG Cell Viability Assay - MOLT-4 3 day: Average external-IC50
Method in brief: as §1

T1 sequence (Q07817 whole entry): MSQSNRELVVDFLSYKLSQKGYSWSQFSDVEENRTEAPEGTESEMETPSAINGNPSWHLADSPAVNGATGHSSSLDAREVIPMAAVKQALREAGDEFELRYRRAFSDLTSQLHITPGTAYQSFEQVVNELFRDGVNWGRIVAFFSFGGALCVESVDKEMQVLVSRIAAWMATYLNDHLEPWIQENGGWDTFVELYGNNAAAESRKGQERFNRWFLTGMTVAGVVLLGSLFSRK

| SMILES | Dmax (BCL-XL) [%] | DC50 (BCL-XL) [nM] | IC50 (Caki-2 cells) [µM] | IC50 (MOLT-4 cells) [nM] |
| --- | --- | --- | --- | --- |
| Cc1cc(N(C)c2ccc(-c3cnn(CC4CCCC4)c3C)c(C(=O)NS(=O)(=O)CCCCCC(=O)N[C@H](C(=O)N3C[C@H](O)C[C@H]3C(=O)N[C@@H](C)c3ccc(-c4scnc4C)cc3)C(C)(C)C)n2)nnc1Nc1nc2ccccc2s1 [I-443] | > 75 | 100 to 500 | > 10 | > 3000 |
| Cc1ncsc1-c1ccc([C@H](C)NC(=O)[C@@H]2C[C@@H](O)CN2C(=O)[C@@H](NC(=O)CCCCCS(=O)(=O)NC(=O)c2nc(N3CCc4cccc(C(=O)Nc5nc6ccccc6s5)c4C3)ccc2-c2cnn(CC3CCCCC3)c2C)C(C)(C)CCO)cc1 [I-365] | > 75 | 10 to 100 | > 10 | < 100 |
| Cc1ncsc1-c1ccc(CNC(=O)[C@@H]2C[C@@H](O)CN2C(=O)[C@@H](NC(=O)CCc2ccc(S(=O)(=O)NC(=O)c3nc(N4CCc5cccc(C(=O)Nc6nc7ccccc7s6)c5C4)ccc3-c3cnn(CC(C)C)c3C)cc2)C(C)(C)C)cc1 [I-318] | > 75 | 10 to 100 | 1 to 10 | < 100 |
| Cc1ncsc1-c1ccc(CNC(=O)[C@@H]2C[C@@H](O)CN2C(=O)[C@@H](NC(=O)CCCCCS(=O)(=O)NC(=O)c2nc(N3CCc4cccc(C(=O)Nc5nc6cccnc6s5)c4C3)ccc2-c2cnn(CC(C)(C)C)c2C)C(C)(C)C)cc1 [I-467] | > 75 | 100 to 500 | > 10 | 1000 to 3000 |
| C#Cc1ccc([C@H](C)NC(=O)[C@@H]2C[C@@H](O)CN2C(=O)[C@@H](NC(=O)CCCCCS(=O)(=O)NC(=O)c2nc(N(C)c3cc(C)c(Nc4nc5ccccc5s4)nn3)ccc2-c2cnn(CC34CC5CC(CC(C5)C3)C4)c2C)C(C)(C)C)c(OCCO)c1 [I-477] | > 75 | < 10 | > 10 | < 100 |
| C#Cc1ccc([C@H](CO)NC(=O)[C@@H]2C[C@@H](O)CN2C(=O)[C@@H](NC(=O)CCCCCS(=O)(=O)NC(=O)c2nc(N(C)c3cc(C)c(Nc4nc5ccccc5s4)nn3)ccc2-c2cnn(CC34CC5CC(CC(C5)C3)C4)c2C)C(C)(C)C)cc1 [I-474] | > 75 | < 10 | > 10 | < 100 |
| C#Cc1ccc(CNC(=O)[C@@H]2C[C@@H](O)CN2C(=O)[C@H](c2cc(N3CCN(c4ccc(S(=O)(=O)NC(=O)c5nc(N6CCc7cccc(C(=O)Nc8nc9ccccc9s8)c7C6)ccc5-c5cnn(CC6CCCCC6)c5C)cc4)CC3)no2)C(C)C)cc1 [I-407] | 50 to 75 | 100 to 500 | 1 to 10 | 100 to 1000 |
| Cc1cc(N(C)c2ccc(-c3cnn(CC45CC6CC(CC(C6)C4)C5)c3C)c(C(=O)NS(=O)(=O)CCCC(=O)N[C@H](C(=O)N3C[C@H](O)C[C@H]3C(=O)N[C@@H](C)c3ccc(-c4scnc4C)cc3)C(C)(C)C)n2)nnc1Nc1nc2ccccc2s1 [I-370] | > 75 | 10 to 100 | > 10 | < 100 |
| Cc1ncsc1-c1ccc([C@H](C)NC(=O)[C@@H]2C[C@@H](O)CN2C(=O)[C@@H](NC(=O)CCCCCCS(=O)(=O)NC(=O)c2nc(N3CCc4cccc(C(=O)Nc5nc6ccccc6s5)c4C3)ccc2-c2cnn(CC3CCCCC3)c2C)C(C)(C)C)cc1 [I-312] | > 75 | 10 to 100 | 1 to 10 | < 100 |
| C#Cc1ccc([C@H](C)NC(=O)[C@@H]2C[C@@H](O)CN2C(=O)[C@@H](NC(=O)CCCCS(=O)(=O)NC(=O)c2nc(N(C)c3cc(C)c(Nc4nc5ccccc5s4)nn3)ccc2-c2cnn(CC34CC5CC(CC(C5)C3)C4)c2C)C(C)(C)C)cc1 [I-368] | > 75 | 10 to 100 | > 10 | < 100 |
| C#Cc1ccc([C@H](C)NC(=O)[C@@H]2C[C@@H](O)CN2C(=O)[C@@H](NC(=O)CCCCCS(=O)(=O)NC(=O)c2nc(N(C)c3cc(C)c(Nc4nc5ccccc5s4)nn3)ccc2-c2cnn(CC(C)(C)C)c2C)C(C)(C)C)cc1 [I-473] | > 75 | 500 to 1000 | > 10 | 1000 to 3000 |
| Cc1ncsc1-c1ccc([C@H](C)NC(=O)[C@@H]2C[C@@H](O)CN2C(=O)[C@@H](NC(=O)COCCOCCS(=O)(=O)NC(=O)c2nc(N3CCc4cccc(C(=O)Nc5nc6ccccc6s5)c4C3)ccc2-c2cnn(CC3CCCCC3)c2C)C(C)(C)C)cc1 [I-463] | > 75 | 10 to 100 | 1 to 10 | < 100 |
| Cc1cc(N(C)c2ccc(-c3cnn(CC45CC6CC(CC(C6)C4)C5)c3C)c(C(=O)NS(=O)(=O)c3ccc(N4CC(C(=O)N[C@H](C(=O)N5C[C@H](O)C[C@H]5C(=O)N[C@@H](C)c5ccc(-c6scnc6C)cc5)C(C)(C)C)C4)cc3)n2)nnc1Nc1nc2ccccc2s1 [I-434] | > 75 | 10 to 100 | > 10 | < 100 |
| C#Cc1ccc([C@H](CO)NC(=O)[C@@H]2C[C@@H](O)CN2C(=O)[C@@H](NC(=O)CCCCCS(=O)(=O)NC(=O)c2nc(N3CCc4cccc(C(=O)Nc5nc6cccnc6s5)c4C3)ccc2-c2cnn(CC3CCCCC3)c2C)C(C)(C)C)cc1 [I-488] | > 75 | 10 to 100 | > 10 | < 100 |
| Cc1ncsc1-c1ccc([C@H](C)NC(=O)[C@@H]2C[C@@H](O)CN2C(=O)[C@@H](NC(=O)CCCCCS(=O)(=O)NC(=O)c2nc(N3CCc4cccc(C(=O)Nc5nc6ccccc6s5)c4C3)ccc2-c2cnn(CC3CCCC3)c2C)C(C)(C)C)cc1 [I-442] | > 75 | 10 to 100 | > 10 | < 100 |
| C#Cc1ccc(CNC(=O)[C@@H]2C[C@@H](O)CN2C(=O)[C@@H](NC(=O)C2CN(c3ccc(S(=O)(=O)NC(=O)c4nc(N(C)c5cc(C)c(Nc6nc7ccccc7s6)nn5)ccc4-c4cnn(CC56CC7CC(CC(C7)C5)C6)c4C)cc3)C2)C(C)(C)C)cc1 [I-440] | > 75 | < 10 | > 10 | < 100 |
| Cc1ncsc1-c1ccc(CNC(=O)[C@@H]2C[C@@H](O)CN2C(=O)[C@@H](NC(=O)C2(F)CC2)C(C)(C)C)c(OCCN2CCN(CC[C@H](CSc3ccccc3)Nc3ccc(S(=O)(=O)NC(=O)c4ccc(N5CC6(CC(N7CCC[C@H]7c7ccccc7C7CC7)C6)C5)cc4)cc3S(=O)(=O)C(F)(F)F)CC2)c1 [I-400] | > 75 | 10 to 100 | > 10 | 100 to 1000 |
| Cc1ncsc1-c1ccc([C@H](C)NC(=O)[C@@H]2C[C@@H](O)CN2C(=O)[C@@H](NC(=O)CCCCCS(=O)(=O)NC(=O)c2nc(N3CCc4cccc(C(=O)Nc5nc6ccccc6s5)c4C3)ccc2-c2ccnc(N(C)C(C)C)c2C)C(C)(C)C)cc1 [I-333] | 50 to 75 | 100 to 500 | > 10 | 100 to 1000 |
| COc1nn(C)c2ccc(CNC(=O)[C@@H]3C[C@@H](O)CN3C(=O)[C@@H](NC(=O)CCCCCS(=O)(=O)NC(=O)c3nc(N4CCc5cccc(C(=O)Nc6nc7cccnc7s6)c5C4)ccc3-c3cnn(CC4CCCCC4)c3C)C(C)(C)C)cc12 [I-483] | > 75 | 10 to 100 | > 10 | < 100 |
| C#Cc1ccc(CNC(=O)[C@@H]2C[C@@H](O)CN2C(=O)[C@@H](NC(=O)CCNCCS(=O)(=O)NC(=O)c2nc(N3CCc4cccc(C(=O)Nc5nc6cccnc6s5)c4C3)ccc2-c2cnn(CC3CCCCC3)c2C)C(C)(C)C)cc1 [I-375] | > 75 | 10 to 100 | > 10 | 1000 to 3000 |
| Cc1ncsc1-c1ccc([C@H](C)NC(=O)[C@@H]2C[C@@H](O)CN2C(=O)[C@@H](NC(=O)C2CCN(CCCS(=O)(=O)NC(=O)c3nc(N4CCc5cccc(C(=O)Nc6nc7ccccc7s6)c5C4)ccc3-c3cnn(CC4CCCCC4)c3C)CC2)C(C)(C)C)cc1 [I-381] | > 75 | 10 to 100 | > 10 | 100 to 1000 |
| CCN1CCN(Cc2cc(S(=O)(=O)NC(=O)c3nc(N4CCc5cccc(C(=O)Nc6nc7ccccc7s6)c5C4)ccc3-c3cnn(CC4CCCCC4)c3C)ccc2N2CCC(C(=O)N[C@H](C(=O)N3C[C@H](O)C[C@H]3C(=O)NCc3ccc(-c4scnc4C)cc3)C(C)(C)C)CC2)CC1 [I-341] | > 75 | 10 to 100 | > 10 | 100 to 1000 |
